This assay has as its target T1, hMrgpMRGPRX2 (Homo sapiens, UniProt Q96LB1).
T1 construct: expressed in transfected cells
T1 sequence (Q96LB1 1-330): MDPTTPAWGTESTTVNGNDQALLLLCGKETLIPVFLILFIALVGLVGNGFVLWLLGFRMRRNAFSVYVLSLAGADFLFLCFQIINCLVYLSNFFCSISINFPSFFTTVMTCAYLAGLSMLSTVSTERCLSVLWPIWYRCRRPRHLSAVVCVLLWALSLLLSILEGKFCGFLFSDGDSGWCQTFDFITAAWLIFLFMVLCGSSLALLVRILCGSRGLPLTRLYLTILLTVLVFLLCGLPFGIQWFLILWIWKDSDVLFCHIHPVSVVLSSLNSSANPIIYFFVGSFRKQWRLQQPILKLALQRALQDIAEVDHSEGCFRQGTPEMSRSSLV
Put plainly: FLIPR intracellular calcium mobilization, antagonist activity in recombinant hMrgpMRGPRX2 expressing cells. Format: cell-based. Conditions: read-out: Human MrgprX2 Antagonist pIC50 (converted). A digest of the protocol:
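Antagonist activity was read as inhibition of intracellular calcium mobilization (FLIPR) in recombinant cells expressing human MrgprX2. Potency was also checked in LAD-2 human mast cells with endogenous receptor, and orthologue activity in cells expressing mouse MrgprB2, mouse MrgprA1, and gerbil, Chinese hamster and cynomolgus orthologues.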
Background: Calcium assays in cells follow changes in intracellular calcium, usually with a dye or a luminescent sensor.
With `CC(C)C(=O)Nc1ncc(Oc2cccc(F)c2)cc1O` [Compound E287, N-[5-(3-fluorophenoxy)-3-hydroxy-2-pyridyl]-2-methyl-propanamide], the IC50 is 794 nM.
The figure for `CC1(C)C(C(=O)Nc2ccc(N3CCC(O)C3)cn2)C1(C)C` (stereo not shown) [Compound E070] is 1050 nM; for `CC(C)C(=O)Nc1cc(Oc2cc(F)cc(F)c2)ccn1` [Compound E143, N-[4-(3,5-difluorophenoxy)-2-pyridyl]-2-methyl-propanamide] it is 200 nM.
The figure for `CC(C)(C)C(=O)Nc1ccc(Oc2ccc(F)c(F)c2)cn1` [Compound E033] is 79.4 nM.
The figure for `CC1(C)C(C(=O)Nc2ccc(OC3COC3)cn2)C1(C)C` [Compound E083] is 1070 nM.
For `CC(C)N(C)C(=O)Nc1ccc(Oc2ccc(F)c(F)c2)cn1` [Compound E104], the IC50 is 126 nM.
As for `CC(C)C(=O)Nc1cnc(Oc2cc(F)cc(F)c2)cn1` [Compound E218], the figure is 316 nM; as for `CC1(C)C(C(=O)Nc2cc(OCC(F)(F)F)ccn2)C1(C)C` [Compound E149, 2,2,3,3-tetramethyl-N-[4-(2,2,2-trifluoroethoxy)-2-pyridyl]cyclopropanecarboxamide], 2000 nM.
As for `CN(C[C@@](C)(O)C(F)(F)F)C(=O)Nc1cnc(Oc2ccc(F)cc2F)cn1` [Compound E253], the figure is 3.89 nM; as for `O=C(Nc1ccc(Oc2ccc(F)c(F)c2)cn1)[C@H]1C[C@H]1C(F)(F)F` [Compound E045], 20 nM.
The figure for `CCN(C[C@@H](O)C(F)(F)F)C(=O)Nc1ccc(Oc2cc(C#N)ccc2F)cn1` [Compound E126] is 7760 nM; for `Cn1cc(-c2ccc(NC(=O)C3C(C)(C)C3(C)C)nc2)nn1` [Compound E190, 2,2,3,3-tetramethyl-N-[5-(1-methyltriazol-4-yl)-2-pyridyl]cyclopropanecarboxamide] it is 631 nM.
As to `CC(C)C(=O)Nc1ccc(Oc2ccccc2)cn1` [Compound E002], the IC50 was 501 nM.
The figure for `CC1(C)C(C(=O)Nc2ccc(-n3ccnn3)cn2)C1(C)C` [Compound E090] is 3390 nM; for `CC1(C(=O)Nc2ccc(Oc3ccc(F)c(F)c3)cn2)CCOCC1` [Compound E027] it is 3160 nM.
On to `CC(C)C(=O)Nc1ccc(-c2cc(F)cc(F)c2)cn1` [Compound E173], for which the IC50 is 31.6 nM.
As for `CCN(C[C@@H](O)C(F)(F)F)C(=O)Nc1cnc(Oc2cccc(C#N)c2F)cn1` [Compound E246], the figure is 2140 nM.
The figure for `CC(C)C(=O)Nc1ccc(Oc2cc(F)cc(C#N)c2)cn1` [Compound E021] is 1580 nM.
Turning to `CN(C[C@@](C)(O)C(F)(F)F)C(=O)Nc1cc(Oc2cccc(F)c2)ccn1` [Compound E160], the IC50 is 42.7 nM.
As for `CC(C)C(=O)Nc1ccc(Cc2ccccc2)cn1` [Compound E181], the figure is 6310 nM; as for `CC1(C(=O)Nc2ccc(Oc3cccc(Cl)c3)cn2)CCOCC1` [Compound E015], 25.1 nM; as for `CCN(C[C@@H](O)C(F)(F)F)C(=O)Nc1cc(Oc2ccccc2C#N)ccn1` [Compound E158], 17.8 nM.
As for `C[C@@H]1C[C@@H]1C(=O)Nc1ccc(Oc2ccc(F)c(F)c2)cn1` [Compound E048], the figure is 15.8 nM; as for `C[C@@H]1C[C@H]1C(=O)Nc1ccc(Oc2ccc(F)c(F)c2)cn1` (racemic) [Compound E048.1], 79.4 nM.
As for `CC(C)C(=O)Nc1ccc(Br)cn1` [Compound E202], the figure is 6310 nM; as for `CC(C)C(=O)Nc1ccc(Oc2cccc(Cl)c2)cn1` [Compound E016], 25.1 nM.
Regarding `CC(C)C(=O)Nc1ccc(Oc2cc(F)cc(F)c2)cn1` [Compound E008], the IC50 is 6.31 nM.
The figure for `CCN(C[C@@H](O)C(F)(F)F)C(=O)Nc1ccc(Oc2cc(F)cc(C#N)c2)cn1` [Compound E116] is 1350 nM; for `CC1(C)C(C(=O)Nc2ccc(N3CCCC3)cn2)C1(C)C` [Compound E097] it is 2.51 nM; for `CC1(C)CC1C(=O)Nc1ccc(N2CCCC2)cn1` (stereo not shown) [Compound E098] it is 87.1 nM.
As for `CC1(C)CCN(c2ccc(Oc3ccc(F)c(F)c3)cn2)C1=O` [Compound E285, 1-[5-(3,4-difluorophenoxy)-2-pyridyl]-3,3-dimethyl-pyrrolidin-2-one], the figure is 257 nM.
As for `CCN(C[C@@H](O)C(F)(F)F)C(=O)Nc1ccc(Oc2cccc(C#N)c2F)cn1` [Compound E134], the IC50 is 468 nM.
In the case of `CCN(C[C@@H](O)C(F)(F)F)C(=O)Nc1cnc(Oc2cc(F)cc(F)c2)cn1` [Compound E236], the IC50 is 31.6 nM.
`CC(C)C(=O)Nc1ccc(Nc2ccccc2)cn1` [Compound E094, N-(5-anilino-2-pyridyl)-2-methyl-propanamide]: the IC50 was 3980 nM.
The figure for `CN(C(=O)Nc1ccc(Oc2ccc(F)c(F)c2)cn1)C1CC1` [Compound E108] is 631 nM.
As for `CC1(C)C(C(=O)Nc2cc(C(F)(F)F)ccn2)C1(C)C` [Compound E203], the figure is 1580 nM; as for `CC(C)C(=O)Nc1ccc(N(C)c2ccccc2)cn1` [Compound E096, 2-methyl-N-[5-(N-methylanilino)-2-pyridyl]propanamide], 2510 nM; as for `CC(C)C(=O)Nc1ccc(-c2ccccc2)cn1` [Compound E164, 2-methyl-N-(5-phenyl-2-pyridyl)propanamide], 251 nM.
As for `Cc1cnc(NC(=O)N(C)C[C@@H](O)C(F)(F)F)cc1Oc1ccc(F)c(F)c1` [Compound E153], the figure is 245 nM; as for `NS(=O)(=O)N1CCC[C@@H]1C(=O)Nc1ccc(Oc2ccc(F)c(F)c2)cn1` [Compound E277, (2R)-N-[5-(3,4-difluorophenoxy)-2-pyridyl]-1-sulfamoyl-pyrrolidine-2-carboxamide], 1910 nM; as for `O=C(Nc1ccc(Oc2ccc(F)c(F)c2)cn1)C1CCOCC1` [Compound E024], 2000 nM.
Take `CN(C[C@@H](O)C(F)(F)F)C(=O)Nc1cc(Oc2ccc(F)c(F)c2)ccn1` [Compound E152]: the IC50 was 263 nM.
The figure for `CC1(C)C(C(=O)Nc2ccc(C3CCOC3)cn2)C1(C)C` (stereo not shown) [Compound E186] is 186 nM.
The figure for `O=C(NCC(O)C(F)(F)F)Nc1ccc(Oc2cc(F)cc(F)c2)cn1` (stereo not shown) [Compound E131] is 1000 nM; for `CCN(C[C@@H](O)C(F)(F)F)C(=O)Nc1cnc(Oc2ccc(F)c(F)c2)cn1` [Compound E240] it is 110 nM.
For `CCN(C[C@@](C)(O)C(F)(F)F)C(=O)Nc1cnc(Oc2cc(F)ccc2F)cn1` [Compound E259], the IC50 is 1.7 nM.
As for `CCN(C[C@@H](O)C(F)(F)F)C(=O)Nc1ccc(Oc2cccc(F)c2)cn1` [Compound E119], the figure is 12.3 nM; as for `CC1(C)C(C(=O)Nc2cc(N3CCCC3)ccn2)C1(C)C` [Compound E146, 2,2,3,3-tetramethyl-N-(4-pyrrolidin-1-yl-2-pyridyl)cyclopropanecarboxamide], 7940 nM.
Consider `CC1(C)C(C(=O)Nc2cc(C(=O)NCC(F)(F)F)ccn2)C1(C)C` [Compound E269, 2-[(2,2,3,3-tetramethylcyclopropanecarbonyl)amino]-N-(2,2,2-trifluoroethyl)pyridine-4-carboxamide], for which the IC50 was 3160 nM.

These data come from patent US20230027929A1, “MrgprX2 Antagonists and Uses Thereof” (Dermira, Inc., priority 2019, published 2023).
